Test results published in article PMC5352556 (Journal of chemical neuroanatomy, 2016).
Structures can show the parent of a compound that is named as a salt.

Tests used:
Assay type in all cases: cell-based
rat Pmat (rPmat) = assay: Concentration dependence of rPmat-mediated substrate uptake in MDCK/rPmat cells; conditions: rPmat-mediated uptake, MDCK/rPmat minus mock, 3 min, 37 °C, pH 7.4
human PMAT (hPMAT) = biological target: T1, human PMAT (hPMAT) (Homo sapiens, UniProt Q7RTT9); assay: Concentration dependence of hPMAT-mediated substrate uptake in MDCK/hPMAT cells; conditions: hPMAT-mediated uptake, MDCK/hPMAT minus mock, 3 min, 37 °C, pH 7.4
T1 sequence (Q7RTT9 1-530): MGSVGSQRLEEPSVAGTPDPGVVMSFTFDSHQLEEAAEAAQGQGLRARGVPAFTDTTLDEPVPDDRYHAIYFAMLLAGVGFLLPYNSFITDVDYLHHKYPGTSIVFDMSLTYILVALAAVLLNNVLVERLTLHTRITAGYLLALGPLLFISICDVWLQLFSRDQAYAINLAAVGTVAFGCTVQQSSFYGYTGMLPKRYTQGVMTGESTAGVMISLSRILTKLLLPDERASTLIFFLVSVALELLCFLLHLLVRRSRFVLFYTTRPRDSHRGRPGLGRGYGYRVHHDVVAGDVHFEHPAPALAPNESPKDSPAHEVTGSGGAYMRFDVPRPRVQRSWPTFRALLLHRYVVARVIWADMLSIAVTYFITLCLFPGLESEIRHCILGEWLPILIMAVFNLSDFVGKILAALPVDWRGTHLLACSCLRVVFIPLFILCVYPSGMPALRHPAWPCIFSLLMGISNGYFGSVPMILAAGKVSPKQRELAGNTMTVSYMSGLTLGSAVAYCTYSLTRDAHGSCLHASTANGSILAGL

mouse Pmat (mPmat) = biological target: T2, mouse Pmat (mPmat) (Mus musculus, UniProt Q8R139); conditions: mPmat-mediated uptake, Flp293/mPmat minus mock, 2 min, 37 °C, pH 7.4
T2 sequence (Q8R139 1-528): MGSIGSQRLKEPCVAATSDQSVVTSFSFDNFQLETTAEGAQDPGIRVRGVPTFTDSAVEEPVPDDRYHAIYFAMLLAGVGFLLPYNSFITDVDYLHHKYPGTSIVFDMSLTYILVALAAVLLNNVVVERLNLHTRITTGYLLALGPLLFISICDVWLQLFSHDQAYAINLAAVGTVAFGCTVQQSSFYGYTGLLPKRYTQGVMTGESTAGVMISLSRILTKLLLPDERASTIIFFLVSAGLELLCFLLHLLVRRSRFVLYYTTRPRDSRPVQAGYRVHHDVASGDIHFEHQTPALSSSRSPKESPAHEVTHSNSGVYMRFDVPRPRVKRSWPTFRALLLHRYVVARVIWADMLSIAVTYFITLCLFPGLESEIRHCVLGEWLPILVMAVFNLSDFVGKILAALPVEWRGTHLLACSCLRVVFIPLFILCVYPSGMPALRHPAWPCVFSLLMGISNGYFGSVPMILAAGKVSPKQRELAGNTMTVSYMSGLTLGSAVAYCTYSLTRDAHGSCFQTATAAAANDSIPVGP

Compound | Km (rat Pmat (rPmat)) [µM] | Vmax (rat Pmat (rPmat)) [nmol/min/mg protein] | Vmax (rat Pmat (rPmat); listed as dopamine) [nmol/min/mg protein] | Km (human PMAT (hPMAT)) [µM] | Vmax (human PMAT (hPMAT)) [nmol/min/mg protein] | Km (mouse Pmat (mPmat)) [µM] | Vmax (mouse Pmat (mPmat)) [nmol/min/mg protein]
[3H]c1c([3H])c(CCN)c([3H])c(O)c1O [Dopamine, 3,4-dihydroxy-[2,5,6-^3H]phenylethylamine] | 271 ± 50 | 0.750 ± 0.049 | 0.750 ± 0.049 | 201 ± 34 | 1.43 ± 0.08 | – | –
NCCc1c[nH]c2ccc(O)cc12 [Serotonin, 5-hydroxy-[1,2-^3H]tryptamine creatinine sulfate] | 82.9 ± 21.2 | 1.26 ± 0.12 | – | 116 ± 27 | – | – | –
C[n+]1ccc(-c2ccccc2)cc1 [MPP^+, 1-methyl-4-phenylpyridinium] | 70.2 ± 12.3 | 0.210 ± 0.011 | – | 33.7 ± 6 | 0.490 ± 0.190 | 49.5 ± 0.1 | 1.59 ± 0.068
